Patent US20050124554A1, “Spermidine derivatives for the treatment of chronic neurodegenerative diseases” (priority 2002, published 2005)
Values joined by “and” are separate entries in the source; they are usually repeats but may differ in a detail not shown here. Identical values can stand only once.

How the values were obtained:
[1] = system: superoxide production in organotypic slice cultures (CA1 pyramidal cell layer); test: Superoxide production monitored fluorescently with hydroethidine (HEt); format: cell-based, Wistar rat; settings: 10 μM AMPA alone
Description: Hydroethidine (HEt) has been utilised to fluorescently monitor the production of superoxide in primary neuronal cultures [Bindokas et al., (1996), Carriedo et al. (1998)]. A stock solution of HEt was made was made in N2 sparged DMSO (10 mg ml^−1) which was then aliquoted and stored at −80° C. aliquots were used only once before being discarded. Two separate experimental paradigms were employed to test the effect of L-Arg3,4 on superoxide production in response to either AMPA or NMDA stimulation.
For the AMA experiments, organotypic slice cultures were loaded with 1 μg ml^−1 HEt in HEPES buffered salt solution (HSS) (in mM): glucose 10, NaCl 144, KCl 5, HEPES 10, MgCl2 1, CaCl2 2, pH 7.4, for 30 minutes in the dark. All subsequent solutions contained HEt to prevent a decrease in signal due to reporter depletion. Images were acquired once per minute for the duration of the experiment on the same system as described above for assessment of cell death. A 10 minute record of baseline superoxide production was produced before the bathing solution was exchanged for HBSS+BEt containing 10 μM AMPA, again for 10 minutes. As shown previously, stimulation of glutamate receptors with AMPA lead to an increase in superoxide production [Bindokas et al., (1996), Carriedo et al. (1998)]. The bathing solution was then exchanged for HBSS+HEt containing both 10 μM AMPA and 300 μM L-Arg3,4 for 10 minutes to test the effect of L-Arg3,4 on superoxide production. In separate control experiments, 300 μM L-Arg3,4 in HSS was incubated with slices to determine if it affected baseline superoxide production on its own.
Acquired images from the AMPA experiments were then analysed with the OpenLab image analysis package. A region of interest was drawn around the CA1 pyramidal cell layer because this was the cell layer that produced the largest increase in fluorescence in response to AMPA activation. In each image, within the region of interest, the average pixel value was calculated in arbitrary units (AU) to produce a record of fluorescence intensity values over time. A linear regression was then performed on the data to calculate the rate of superoxide production as change in intensity over time (arbitrary units per minute, AU min^−1) for each of the treatments. Data is presented as mean±s.d. Rates of superoxide production were then compared by ANOVA followed by post-hoc comparisons with Bonferroni corrections with significance indicated as * for P<0.05 and ** for P<0.01.

models of excitotoxicity = settings: Hartley & Choi 1989; cited from earlier work
[2] = system: acute hippocampal slices (CA1 pyramidal cell layer, Schaffer collateral stimulation); test: Electrophysiology: evoked field responses / synaptic transmission; parameters: species or system Sprague-Dawley rats
Source text: All animal procedures to produce acute hippocampal slices were approved by the Home Office. Male, 250 g, Sprague-Dawley rats were deeply anaesthetised with halothane and decapitated. The brain was quickly removed, and the hippocampi dissected out and then cut into 300 μm thick transverse slices on a vibratome (Leica, Milton Keynes, UK) in cold cutting solution (in mM: 189 sucrose, 2.5 KCl, 26 NaHCO3, 1.2 NaH2PO4, 10 glucose, 5 MgCl2, 0.1 CaCl2) equilibrated with 5% CO2, 95% O2. Slices were transferred to aCSF (in mM: 10 glucose, 125 NaCl, 5 KCl, 26 NaHCO3, 1 MgCl2, 1.25 NaH2PO4, 2 CaCl2, 10 sucrose) at room temperature, bubbled with 5% CO2 and 95% O2, for at least 1 h before use.
Slices were then transferred to a submerged perfusion chamber (2 ml volume) for the electrophysiological recordings and were perfused at 10 ml min^−1 at 25° C. with aCSF equilibrated with 5% CO2 and 95% O2, and allowed to equilibrate for 1 h before manipulations were started. Experimental compounds were applied by bath perfusion. L-Arg3,4 was applied at 300 μM and DNQX was applied at 10 μM final concentration. DNQX was diluted from a 40 mM stock in DMSO (final DMSO of 0.025%). The Schaffer collaterals of CA3 were stimulated at voltages from 0 to 30 V with a constant voltage stimulator (Digitimer, Hertfordshire, UK) via a twisted pair stimulating electrode of polyimide coated stainless steel wire (Plastics One, Roanoke, Va.). Field potential responses were recorded with an Axopatch 200B amplifier (Axon Instruments, Foster City, Calif.) in the fast current clamp mode via a 2M KCl filled glass electrode (2-5 MQ) in the CA1 pyramidal cell layer. Responses were filtered at 2 kHz, digitised at 20 kHz with a Digidata 1320A (Axon Instruments), and stored onto hard disk with Clampex 8.1 software (Axon Instruments) running on a Dell Pentium III PC. Data was analysed in Clampfit 8.1 (Axon Instruments).
Stimulus-response (S/R) curves were generated from stimuli from 0 to 30 V in 2 V increments. Bath perfusion of 300 μM L-Arg3,4 in aCSF was applied for 10 min with a sub-maximal stimulus applied every minute to monitor synaptic transmission. A second S/R curve was generated before the perfusion was switched back to plain aCSF. A sub-maximal stimulus was applied every minute during the 15 min wash period after which a third SIR curve was generated. Perfusion of 10 μM DNQX was then started until the response to the sub-maximal stimulus was completely eliminated which always occurred within 10 min. […] In Clampfit, S/R curves were fit to a sigmoidal function of the form: [formula] where R is the magnitude of the evoked response, Rmax is the maximum response, V50 is the voltage which produces a half maximal response, S is the stimulus voltage, and m is proportional to the slope of the linear region of the sigmoid. Data was compared by one way ANOVA.

Structure (SMILES): Cc1o[nH]c(=O)c1CC(N)C(=O)O (centres unmarked) [AMPA, reference compound]
- increase of rate of superoxide production over baseline [1]: approximately 5 fold
- rate of superoxide production [1]: 10.65±3.70 AU min-1

Structure (SMILES): N[C@H](CCCP(=O)(O)O)C(=O)O [D-APV]
- delay of administration at which effectiveness is lost (therapeutic window) (models of excitotoxicity): 30 min

Structure (SMILES): O=c1[nH]c2cc([N+](=O)[O-])c([N+](=O)[O-])cc2[nH]c1=O [DNQX, 6,7-Dinitroquinoxaline-2,3(1H,4H)-dione, reference compound]
- time to complete elimination of response / synaptic transmission ([2]; 10 μM, all slices): ≤ 10 min
- time to elimination of all transmission ([2]; 10 μM, single slice, sub-maximal stimulus): ≤ 5 min
- effect on evoked responses ([2]; bath application, L-Arg3,4 300 μM, DNQX 10 μM): blocked the evoked response completely

Structure (SMILES): C[C@]12N[C@H](Cc3ccccc31)c1ccccc12 [MK-801]
- delay of administration at which effectiveness is lost (therapeutic window) (models of excitotoxicity): 30 min and 15 min

Structure (SMILES): COc1ccc2c(c1)[C@]13CCCC[C@@H]1[C@H](C2)N(C)CC3 [dextromethorphan]
- delay of administration at which effectiveness is lost (therapeutic window) (models of excitotoxicity): 30 min
